Results: paper PMC7580737, “Synthesis, in vitro inhibitory activity, kinetic study and molecular docking of novel N-alkyl–deoxynojirimycin derivatives as potential α-glucosidase inhibitors” (Journal of Enzyme Inhibition and Medicinal Chemistry, 2020)
Like-named read-outs stand apart in the source and are kept apart here.

Columns and labels:
[1] = target: α-glucosidase (EC 3.2.1.20) (Saccharomyces cerevisiae, UniProt P53341); experiment: biochemical; type: biochemical
α-glucosidase = target: T1, α-glucosidase (Saccharomyces cerevisiae, UniProt P53341); experiment: Kinetic study of α-glucosidase inhibition (Lineweaver–Burk plots); type: biochemical; details: for Type of inhibition: Lineweaver–Burk plots: Vmax not affected, Km increased; for Ki: determined by Lineweaver–Burk plots
T1 construct: purchased Sigma-Aldrich
Procedure: The type of inhibition and value of Ki were determined by Lineweaver–Burk plots.
The 10 µL of enzyme solution (1 U/mL) was incubated with different concentrations of compound 43 (0.00 mM,0.012 mM, 0.02 mM, 0.04 mM), 40 (0.00 mM, 0.06 mM, 0.10 mM, 0.20 mM)and 34 (0.00 mM, 0.30 mM, 0.50 mM, 1.00 mM) for 20 min at 37 °C, then added different concentrations of substrate (1 mM, 0.9 mM, 0.75 mM, 0.6 mM, 0.45 mM, 0.3 mM, 0.25 mM), and change in absorbance was measured for 20 min at 405 nm by using spectrophotometer.

[2] = phosphate buffer pH 6.8, 37 °C, PNPG substrate, mean ± SD, at least three experiments, read-out: IC50 (α-glucosidase inhibitory activity)

T1 sequence (P53341 whole entry): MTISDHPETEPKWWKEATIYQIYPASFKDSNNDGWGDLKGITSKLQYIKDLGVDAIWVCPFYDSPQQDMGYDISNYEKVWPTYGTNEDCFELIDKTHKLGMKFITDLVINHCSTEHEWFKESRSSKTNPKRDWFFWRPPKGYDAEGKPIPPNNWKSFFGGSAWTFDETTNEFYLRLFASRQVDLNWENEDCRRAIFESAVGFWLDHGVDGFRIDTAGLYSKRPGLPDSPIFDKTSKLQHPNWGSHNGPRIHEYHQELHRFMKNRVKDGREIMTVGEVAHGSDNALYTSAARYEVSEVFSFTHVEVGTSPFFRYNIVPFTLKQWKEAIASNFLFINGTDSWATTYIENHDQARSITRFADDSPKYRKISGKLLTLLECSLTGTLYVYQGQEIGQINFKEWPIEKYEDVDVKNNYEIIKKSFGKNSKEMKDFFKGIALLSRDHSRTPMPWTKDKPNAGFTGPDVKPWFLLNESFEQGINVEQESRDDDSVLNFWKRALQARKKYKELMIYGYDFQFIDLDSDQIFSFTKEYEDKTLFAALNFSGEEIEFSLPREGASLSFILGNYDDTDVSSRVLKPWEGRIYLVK
Chain of α-glucosidase (EC 3.2.1.20) (P53341 whole entry): as above

IC50 [1, 2] [µM]	Compound	melting point [°C]	IC50 [1] [µM]	other results
	COC(=O)C=Cc1ccc(OCCCCCN2CC(O)C(O)C(O)C2CO)cc1 (stereo not drawn) [Compound 33]	85 to 86	602.3 ± 1.2	
> 2000	COC(=O)C=Cc1ccc(OCCCN2CC(O)C(O)C(O)C2CO)cc1 (stereo not drawn) [Compound 31]	104 to 107		
	O=C(C=Cc1ccccc1)c1ccccc1OCCCCCN1CC(O)C(O)C(O)C1CO (stereo not drawn) [Compound 43]		30 ± 0.6	fold more active than 1-DNJ [1]: ~7 fold; fold more active than acarbose [1]: ~27 fold; Type of inhibition (α-glucosidase): competitive inhibitors; Ki (α-glucosidase): 10 µM
> 2000	CCOC(=O)C=Cc1ccc(OCCCN2CC(O)C(O)C(O)C2CO)c(OC)c1 (stereo not drawn) [Compound 36]			
> 2000	CCOC(=O)C=Cc1ccc(OCCCCCN2CC(O)C(O)C(O)C2CO)c(OC)c1 (stereo not drawn) [Compound 38]			
> 2000	CCOC(=O)C=Cc1ccc(OCCCCCCN2CC(O)C(O)C(O)C2CO)c(OC)c1 (stereo not drawn) [Compound 39, Ethyl(E)-3-(3-methoxy-4-(6-(3,4,5-trihydroxy-2-(hydroxymethyl)piperidin-1-yl)ethoxy)phenyl)acrylate]			
	COC(=O)/C=C/c1ccc(OCCN2CC(O)C(O)C(O)C2CO)cc1 (stereo not drawn) [Compound 30, Methyl(E)-3-(4-(2-(3,4,5-trihydroxy-2-(hydroxymethyl)piperidin-1-yl)ethoxy)phenyl) acrylate]	185 to 187	1272.2 ± 1.2	
	O=C(/C=C/c1ccccc1)OCCCN1C[C@H](O)[C@@H](O)[C@H](O)[C@H]1CO [Compound 26, 3-(3,4,5-Trihydroxy-2-(hydroxymethyl)piperidin-1-yl) ethyl cinnamate]		1099 ± 1.1	
> 2000	CCOC(=O)C=Cc1ccc(OCCCCN2CC(O)C(O)C(O)C2CO)c(OC)c1 (stereo not drawn) [Compound 37]			
	COC(=O)C=Cc1ccc(OCCCCN2CC(O)C(O)C(O)C2CO)cc1 (stereo not drawn) [Compound 32]	157 to 160	667 ± 1.6	
	O=C(/C=C/c1ccccc1)OCCN1C[C@H](O)[C@@H](O)[C@H](O)[C@H]1CO [Compound 25, 2-(3,4,5-Trihydroxy-2-(hydroxymethyl)piperidin-1-yl) ethyl cinnamate]		1094 ± 1.8	
	COC(=O)C=Cc1ccc(OCCCCCCN2CC(O)C(O)C(O)C2CO)cc1 (stereo not drawn) [Compound 34]	110 to 113	417 ± 0.14	Type of inhibition (α-glucosidase): competitive inhibitors; Ki (α-glucosidase): 150 µM
	O=C(/C=C/c1ccccc1)c1ccccc1OCCN1CC(O)C(O)C(O)C1CO (stereo not drawn) [Compound 40, (E)-3-phenyl-1-(2-(2-(3,4,5-trihydroxy-2-(hydroxymethyl)piperidin-1-yl)ethoxy)phenyl)prop-2-en-1-one]		160.5 ± 0.6	fold more active than acarbose [1]: around 5 fold; Type of inhibition (α-glucosidase): competitive inhibitors; Ki (α-glucosidase): 52 µM
	O=C(/C=C/c1ccccc1)OCCCCCCN1C[C@H](O)[C@@H](O)[C@H](O)[C@H]1CO [Compound 29]		976.5 ± 0.7	
	CCOC(=O)/C=C/c1ccc(OCCN2CC(O)C(O)C(O)C2CO)c(OC)c1 (stereo not drawn) [Compound 35, Ethyl(E)-3-(3-methoxy-4-(2-(3,4,5-trihydroxy-2-(hydroxymethyl)piperidin-1-yl)ethoxy)phenyl)acrylate]	146 to 148	966.2 ± 0.4	
